Test results taken from the supplement of paper PMC10307832.

How the values were obtained:
Test in all cases: relative viability (nuclei count vs DMSO), 5 days (fraction); higher = more cells survive
[1] = compound: CC(=O)Nc1cccc(-n2c(=O)n(C3CC3)c(=O)c3c(Nc4ccc(I)cc4F)n(C)c(=O)c(C)c32)c1 [Trametinib] + CS(=O)(=O)CCNCc1ccc(-c2ccc3ncnc(Nc4ccc(OCc5cccc(F)c5)c(Cl)c4)c3c2)o1 [Lapatinib] (partner 2 µM)
In short: (§1)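 Each reported value is a median over duplicate plates. It expresses relative viability: treated-well nuclei count divided by vehicle-well nuclei count. Lung cancer cell lines in 1536-well plates were dosed by pin tool a day after seeding, alone with one drug or with a fixed anchor-drug dose plus five library-drug doses (not always all listed) in √10 steps, and nuclei were counted after 5 days.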

[2] = compound: CN1C=C(C2=CC=CC=C21)/C=C\3/C4=C(C=CC=N4)NC3=O + Cc1nc(Nc2ncc(C(=O)Nc3c(C)cccc3Cl)s2)cc(N2CCN(CCO)CC2)n1 [Dasatinib] (partner 0.075 µM)
In short: as §1

[3] = compound: CN1C=C(C2=CC=CC=C21)/C=C\3/C4=C(C=CC=N4)NC3=O + O=C(c1cc(Cc2n[nH]c(=O)c3ccccc23)ccc1F)N1CCN(C(=O)C2CC2)CC1 [Olaparib] (partner 8 µM)
In short: as §1

[4] = compound: CN1C=C(C2=CC=CC=C21)/C=C\3/C4=C(C=CC=N4)NC3=O + CC(=O)Nc1cccc(-n2c(=O)n(C3CC3)c(=O)c3c(Nc4ccc(I)cc4F)n(C)c(=O)c(C)c32)c1 [Trametinib] (partner 0.02 µM)
In short: as §1

Cell Line	relative viability ([1]; first compound 0.0025 µM)	relative viability ([1]; first compound 0.007906 µM)	relative viability ([1]; first compound 0.025 µM)	relative viability ([1]; first compound 0.07906 µM)	relative viability ([1]; first compound 0.25 µM)	relative viability ([2]; first compound 0.6325 µM)	relative viability ([2]; first compound 2 µM)	relative viability ([3]; first compound 0.02 µM)	relative viability ([3]; first compound 0.06325 µM)	relative viability ([3]; first compound 0.6325 µM)	relative viability ([3]; first compound 2 µM)	relative viability ([4]; first compound 0.06325 µM)	relative viability ([4]; first compound 0.2 µM)	relative viability ([4]; first compound 0.6325 µM)	relative viability ([4]; first compound 2 µM)	relative viability ([2]; first compound 0.02 µM)	relative viability ([2]; first compound 0.06325 µM)	relative viability ([2]; first compound 0.2 µM)	relative viability ([3]; first compound 0.2 µM)	relative viability ([4]; first compound 0.02 µM)
LK-2	0.797	0.758	0.822	0.711	0.375	0.266	0.256	0.563	0.528	0.422	0.66	0.683	0.743	0.701	0.794					
LOU-NH91	0.745	0.736	0.603	0.753	0.414	0.516	0.466	0.906	0.871	0.841	0.901	0.751	0.746	0.678	0.74	0.58	0.501	0.464	0.883	0.749
LU99A	0.866	0.911	0.719	0.674	0.267	0.669	0.612	0.253	0.24	0.21	0.278	0.504	0.494	0.588	0.597	0.67	0.457	0.437	0.274	0.554
LXF-289	0.863	0.759	0.677	0.615	0.57	0.2	0.202	1.09	0.998	1.07	1.1	0.679	0.739	0.717	0.72	0.203	0.197	0.184	1.19	0.677
NCI-H23	0.872	0.74	0.335	0.529	0.211	0.698	0.8	0.253	0.357	0.293	0.262	0.332	0.301	0.287	0.443	0.769	0.741	0.518	0.218	0.346
NCI-H322M	0.59	0.469	0.443	0.388	0.455	0.248	0.264	0.766	0.717	0.961	0.923	0.503	0.51	0.468	0.553	0.239	0.254	0.236	0.718	0.476
NCI-H358	0.38	0.376	0.309	0.295	0.328	0.186	0.198	0.607	0.534	0.565	0.507	0.127	0.116	0.136	0.117	0.145	0.166	0.174	0.564	0.12
NCI-H460	0.897	0.754	0.42	0.148	0.0413	0.44	0.459	0.463	0.417	0.435	0.367	0.158	0.0911	0.0905	0.12	0.648	0.448	0.388	0.491	0.304
NCI-H520	0.855	0.912	0.756	0.68	0.428	0.182	0.221	0.298	0.369	0.342	0.363	0.589	0.621	0.716	0.68	0.206	0.213	0.199	0.312	0.542
NCI-H596	0.918	0.817	0.807	0.833	0.412	0.628	0.48	0.545	0.744	0.558	0.554	0.781	0.755	0.744	0.867	0.481	0.582	0.469	0.648	0.741
NCI-H647	1.03	0.936	0.759	0.683	0.231	0.143	0.167	0.262	0.426	0.395	0.458	0.404	0.41	0.38	0.404	0.208	0.176	0.105	0.446	0.532
NCI-H650	0.885	1.19	0.845	0.825	0.498	0.415	0.39	0.464	0.418	0.434	0.411	0.943		0.942	0.907	0.519	0.494			0.928
NCI-H661	0.43	0.451	0.448	0.341	0.421	0.819	0.853	0.825	0.722	0.89	0.822	0.65	0.56	0.533	0.589	0.892	0.827	0.626	0.791	0.615
NCI-H727	0.606	0.415	0.291	0.297	0.216	0.332	1.12	0.76	0.729	0.688	0.635	0.344	0.361	0.373	0.401	0.332	0.372	0.365	0.67	0.461
NCI-H838	0.846	0.933		0.634	0.428	0.27	0.261	0.695	0.604	0.765	0.67	0.413	0.527	0.469	0.459	0.146	0.277	0.242	0.653	0.467
NCI-H1355	0.838	0.767	0.369	0.532	0.4	0.399	0.502	0.558	0.678	0.469	0.574	0.361	0.423	0.274	0.3	0.671	0.586	0.571	0.717	0.336
